Measurements as given in patent publication US20030181426A1, “Compositions and methods for treating pain using cyclooxygenase-1 inhibitors” (priority 2002, published 2003).

Legend:
acute noxious heat = test: Heat pain testing with Peltier-controlled thermode in volunteers; assay type: in vivo, humans; settings: for Pain threshold temperatures: in °C (unit assumed)
tactile allodynia = test: PSNL tactile allodynia, local and systemic ketorolac; assay type: in vivo, rats; settings: for duration of reversal of tactile allodynia: disappeared by day 5; for tactile allodynia in the ipsilateral paw: three hours after injection
Description: PSNL was performed as described above. […] Three rats in each group were also injected with normal saline to serve as controls. For all injections, rats were briefly anaesthetized by inhalation of 2-4% halothane/96% oxygen and air. Perineural injection was performed as previously described ([…] al. 1995). Briefly, the rat was held in lateral recumbency with the limb to be injected forming a right angle with a longitudinal axis of the trunk. The greater trochanter and ischial tuberosity were localized by palpation. On an imaginary line from the greater trochanter to the ischial tuberosity, about one third of the distance caudal to the greater trochanter, a 25-gauge injection needle was advanced from dorsolateral direction at a 45° angle until the tip encountered the ischium. A total volume of 0.2 mL was injected in a fanning motion along the path of the sciatic nerve.

SMILES: O=C(c1ccccc1)c1ccc2n1CCC2C(=O)O (stereo not drawn) [ketorolac]
- temperature pain threshold (acute noxious heat; 0.5 mg i.t.): did not affect
- analgesic effect to acute noxious heat (pain magnitude report) (acute noxious heat; 0.5 mg i.t., moderate and severe pain intensities, FIG. 3): apparent effect
- Pain threshold temperatures (acute noxious heat; Arm, 0.25 mg i.t., 0.25 h): 45 ± 1.0
- Pain threshold temperatures (acute noxious heat; Arm, 0.25 mg i.t., 0.5 h): 44 ± 1.5
- Pain threshold temperatures (acute noxious heat; Arm, 0.25 mg i.t., 1 h): 45 ± 1.3
- Pain threshold temperatures (acute noxious heat; Arm, 0.25 mg i.t., 2 h): 44 ± 1.7
- Pain threshold temperatures (acute noxious heat; Arm, 0.25 mg i.t., 3 h): 45 ± 1.1
- Pain threshold temperatures (acute noxious heat; Arm, 0.25 mg i.t., 4 h): 44 ± 2.2
- Pain threshold temperatures (acute noxious heat; Arm, 0.25 mg i.t., 24 h): 46 ± 0.5
- Pain threshold temperatures (acute noxious heat; Arm, 0.25 mg i.t., time 0 h (injection at time 0)): 45 ± 1.1
- Pain threshold temperatures (acute noxious heat; Arm, 0.50 mg i.t., 0.25 h): 44 ± 1.9
- Pain threshold temperatures (acute noxious heat; Arm, 0.50 mg i.t., 0.5 h): 43 ± 1.2
- Pain threshold temperatures (acute noxious heat; Arm, 0.50 mg i.t., 1 h): 44 ± 1.7
- Pain threshold temperatures (acute noxious heat; Arm, 0.50 mg i.t., 2 h): 45 ± 1.9
- Pain threshold temperatures (acute noxious heat; Arm, 0.50 mg i.t., 3 h): 46 ± 1.7
- Pain threshold temperatures (acute noxious heat; Arm, 0.50 mg i.t., 4 h): 46 ± 1.7
- Pain threshold temperatures (acute noxious heat; Arm, 0.50 mg i.t., 24 h): 44 ± 1.7
- Pain threshold temperatures (acute noxious heat; Arm, 0.50 mg i.t., time 0 h (injection at time 0)): 45 ± 1.9
- Pain threshold temperatures (acute noxious heat; Arm, 1.0 mg i.t., 0.25 h): 41 ± 1.3
- Pain threshold temperatures (acute noxious heat; Arm, 1.0 mg i.t., 0.5 h): 40 ± 0.5
- Pain threshold temperatures (acute noxious heat; Arm, 1.0 mg i.t., 1 h): 39 ± 0.7
- Pain threshold temperatures (acute noxious heat; Arm, 1.0 mg i.t., 2 h): 41 ± 1.2
- Pain threshold temperatures (acute noxious heat; Arm, 1.0 mg i.t., 3 h): 42 ± 0.9
- Pain threshold temperatures (acute noxious heat; Arm, 1.0 mg i.t., 4 h): 42 ± 1.5
- Pain threshold temperatures (acute noxious heat; Arm, 1.0 mg i.t., 24 h): 41 ± 1.6
- Pain threshold temperatures (acute noxious heat; Arm, 1.0 mg i.t., time 0 h (injection at time 0)): 40 ± 0.5
- Pain threshold temperatures (acute noxious heat; Arm, 2.0 mg i.t., 0.25 h): 44 ± 1.9
- Pain threshold temperatures (acute noxious heat; Arm, 2.0 mg i.t., 0.5 h): 43 ± 1.4
- Pain threshold temperatures (acute noxious heat; Arm, 2.0 mg i.t., 1 h): 40 ± 2.1
- Pain threshold temperatures (acute noxious heat; Arm, 2.0 mg i.t., 2 h): 43 ± 1.8
- Pain threshold temperatures (acute noxious heat; Arm, 2.0 mg i.t., 3 h): 43 ± 1.6
- Pain threshold temperatures (acute noxious heat; Arm, 2.0 mg i.t., 4 h): 43 ± 1.9
- Pain threshold temperatures (acute noxious heat; Arm, 2.0 mg i.t., 24 h): 45 ± 2.3
- Pain threshold temperatures (acute noxious heat; Arm, 2.0 mg i.t., time 0 h (injection at time 0)): 44 ± 1.3
- Pain threshold temperatures (acute noxious heat; Leg, 0.25 mg i.t., 0.25 h): 45 ± 1.1
- Pain threshold temperatures (acute noxious heat; Leg, 0.25 mg i.t., 0.5 h): 46 ± 1.1
- Pain threshold temperatures (acute noxious heat; Leg, 0.25 mg i.t., 1 h): 47 ± 0.7
- Pain threshold temperatures (acute noxious heat; Leg, 0.25 mg i.t., 2 h): 46 ± 1.5
- Pain threshold temperatures (acute noxious heat; Leg, 0.25 mg i.t., 3 h): 45 ± 1.1
- Pain threshold temperatures (acute noxious heat; Leg, 0.25 mg i.t., 4 h): 46 ± 0.9
- Pain threshold temperatures (acute noxious heat; Leg, 0.25 mg i.t., 24 h): 45 ± 1.1
- Pain threshold temperatures (acute noxious heat; Leg, 0.25 mg i.t., time 0 h (injection at time 0)): 45 ± 1.3
- Pain threshold temperatures (acute noxious heat; Leg, 0.50 mg i.t., 0.25 h): 46 ± 2.4
- Pain threshold temperatures (acute noxious heat; Leg, 0.50 mg i.t., 0.5 h): 48 ± 2.2
- Pain threshold temperatures (acute noxious heat; Leg, 0.50 mg i.t., 1 h): 46 ± 1.7
- Pain threshold temperatures (acute noxious heat; Leg, 0.50 mg i.t., 2 h): 46 ± 2.5
- Pain threshold temperatures (acute noxious heat; Leg, 0.50 mg i.t., 3 h): 46 ± 1.7
- Pain threshold temperatures (acute noxious heat; Leg, 0.50 mg i.t., 4 h): 46 ± 2.4
- Pain threshold temperatures (acute noxious heat; Leg, 0.50 mg i.t., 24 h): 45 ± 2.0
- Pain threshold temperatures (acute noxious heat; Leg, 0.50 mg i.t., time 0 h (injection at time 0)): 45 ± 1.4
- Pain threshold temperatures (acute noxious heat; Leg, 1.0 mg i.t., 0.25 h): 42 ± 1.7
- Pain threshold temperatures (acute noxious heat; Leg, 1.0 mg i.t., 0.5 h): 42 ± 0.5
- Pain threshold temperatures (acute noxious heat; Leg, 1.0 mg i.t., 1 h): 44 ± 0.5
- Pain threshold temperatures (acute noxious heat; Leg, 1.0 mg i.t., 2 h): 42 ± 1.5
- Pain threshold temperatures (acute noxious heat; Leg, 1.0 mg i.t., 3 h): 43 ± 1.0
- Pain threshold temperatures (acute noxious heat; Leg, 1.0 mg i.t., 4 h): 43 ± 1.1
- Pain threshold temperatures (acute noxious heat; Leg, 1.0 mg i.t., 24 h): 42 ± 0.9
- Pain threshold temperatures (acute noxious heat; Leg, 1.0 mg i.t., time 0 h (injection at time 0)): 41 ± 1.3
- Pain threshold temperatures (acute noxious heat; Leg, 2.0 mg i.t., 0.25 h): 45 ± 1.4
- Pain threshold temperatures (acute noxious heat; Leg, 2.0 mg i.t., 0.5 h): 43 ± 1.3
- Pain threshold temperatures (acute noxious heat; Leg, 2.0 mg i.t., 1 h): 44 ± 2.1
- Pain threshold temperatures (acute noxious heat; Leg, 2.0 mg i.t., 2 h): 44 ± 2.3
- Pain threshold temperatures (acute noxious heat; Leg, 2.0 mg i.t., 3 h): 43 ± 1.6
- Pain threshold temperatures (acute noxious heat; Leg, 2.0 mg i.t., 4 h): 44 ± 1.8
- Pain threshold temperatures (acute noxious heat; Leg, 2.0 mg i.t., 24 h): 45 ± 2.2
- Pain threshold temperatures (acute noxious heat; Leg, 2.0 mg i.t., time 0 h (injection at time 0)): 45 ± 1.6
- response to suprathreshold stimuli (acute noxious heat; any dose (0.25-2 mg i.t.)): no effect
- threshold to heat pain in either the arm or the leg (acute noxious heat; i.t. 0.25-2 mg): unaffected
- analgesia to acute noxious heat (acute noxious heat; i.t., doses up to 1.0 mg): several hours of analgesia
- duration of reversal of tactile allodynia (tactile allodynia; 0.2 mL 0.5% intramuscular): 3 days
- tactile allodynia in the ipsilateral paw (tactile allodynia; 0.2 mL 0.5% intramuscular): reversed
- duration of reversal of tactile allodynia (tactile allodynia; 0.2 mL 0.5% intraperitoneal): 3 days
- tactile allodynia in the ipsilateral paw (tactile allodynia; 0.2 mL 0.5% intraperitoneal): reversed
- tactile allodynia in the ipsilateral hindpaw (tactile allodynia; 0.2 mL 0.5% intraplantar, 3 weeks after PSNL, three hours to 5 days): reversed the tactile allodynia
- antiallodynic effect (tactile allodynia; 0.2 mL 0.5% peri-neural, 3 weeks after PSNL): slow onset of antiallodynic effect that was observed only 3 and 5 days after injection
